Data as given in PubChem BioAssay AID1259408 (Genetic Toxicology Data Bank (GENE-TOX), 2018).
Activity calls are given as the source filed them. How the calls were made is not given here.

Tested on: GENE-TOX genotoxicity assays, various organisms and cells
Experiment: GENE-TOX mutagenicity studies
Conditions: for call: Assay Type: In vivo carcinogenicity studies
[1] = Species/Cell Type: Drosophila melanogaster, Assay Type: Sex-linked recessive lethal gene mutation, Assay Code: SRLT, Evaluation Type: Evaluation A (Pre-1980)
[2] = Species/Cell Type: Hordeum vulgare (barley), Assay Type: Chromosome aberrations, Assay Code: HOC+, Evaluation Type: Evaluation A (Pre-1980)
[3] = Species/Cell Type: Nonhuman, Assay Code: CCG+L, Evaluation Type: Evaluation A (Pre-1980)
[4] = Species/Cell Type: Allium cepa, Assay Type: Chromosome aberrations, Assay Code: ALC+, Evaluation Type: Evaluation A (Pre-1980)
[5] = Species/Cell Type: Salmonella typhimurium (one or more of the five standard strains: TA98, TA100, TA1535, TA1537, and TA1538), Assay Type: Histidine reverse gene mutation, Ames assay, Assay Code: SAL+, Evaluation Type: Evaluation A (Pre-1980)
[6] = Species/Cell Type: Nonhuman, Assay Type: Sister-chromatid exchange (SCE) in vitro, Assay Code: SC2+D, Dose Response: With dose response, Evaluation Type: Evaluation B (Post-1980)
[7] = Species/Cell Type: Mammalian polychromatic erythrocytes, Assay Type: Micronucleus test, chromosome aberrations, Assay Code: MNT+, Evaluation Type: Evaluation B (Post-1980)
[8] = Species/Cell Type: Rodents, Sex: Male, Assay Type: Dominant lethal test, Assay Code: DLT-, Evaluation Type: Evaluation A (Pre-1980)
[9] = Species/Cell Type: Nonhuman, Assay Code: CCG+, Evaluation Type: Evaluation A (Pre-1980)

## CN(C)C(=O)Nc1ccc(Cl)cc1
Species/Cell Type: Bacillus subtilis (H17 vs M45), Assay Type: Rec-assay, spot test, DNA effects (bacterial DNA repair), Assay Code: REWT, Evaluation Type: Evaluation A (Pre-1980)
  mutagenic call: no conclusion
[1]
  mutagenic call: no conclusion
Species/Cell Type: Escherichia coli WP2 UVRA, Assay Type: Tryptophan reverse gene mutation, Assay Code: WPU-*, Activation: With metabolic activation, Evaluation Type: Evaluation A (Pre-1980)
  mutagenic call: inactive; negative
Species/Cell Type: Escherichia coli polA (W3119 vs P3478), Assay Type: Rec-assay, DNA effects (bacterial DNA repair), Assay Code: RE1T, Evaluation Type: Evaluation A (Pre-1980)
  mutagenic call: no conclusion
[2]
  mutagenic call: active; positive
Species/Cell Type: Human diploid fibroblasts, Assay Type: Unscheduled DNA synthesis (UDS) in vitro, DNA effects, Assay Code: UDH-, Evaluation Type: Evaluation A (Pre-1980)
  mutagenic call: inactive; negative
[3]
  call: active; positive
Species/Cell Type: Saccharomyces cerevisiae, Assay Type: Mitotic recombination or gene conversion, Assay Code: YEH-, Evaluation Type: Evaluation A (Pre-1980)
  mutagenic call: inactive; negative

## O=[N+]([O-])c1ccnc2ccccc12
Species/Cell Type: Escherichia coli polA (W3119 vs P3478), Assay Type: Rec-assay, DNA effects (bacterial DNA repair), Assay Code: RE1-, Evaluation Type: Evaluation A (Pre-1980)
  mutagenic call: inactive; negative

## CC(C)NCCCNc1c2ccccc2nc2cccc([N+](=O)[O-])c12
Species/Cell Type: Human lymphocytes, Assay Type: Sister-chromatid exchange (SCE) in vitro, Assay Code: SCL+, Evaluation Type: Evaluation A (Pre-1980)
  mutagenic call: active; positive
Species/Cell Type: Human, Assay Type: Sister-chromatid exchange (SCE) in vitro, Assay Code: SC1+, Evaluation Type: Evaluation A (Pre-1980)
  mutagenic call: active; positive

## CC1=CCc2c1c(C)c(C)c1c2ccc2ccccc21
Species/Cell Type: Salmonella typhimurium (one or more of the five standard strains: TA98, TA100, TA1535, TA1537, and TA1538), Assay Type: Histidine reverse gene mutation, Ames assay, Assay Code: SAL+*, Activation: With metabolic activation, Evaluation Type: Evaluation A (Pre-1980)
  mutagenic call: active; positive

## CCC[CH2][Sn]([CH2]CCC)([CH2]CCC)[O][Sn]([CH2]CCC)([CH2]CCC)[CH2]CCC
Species/Cell Type: Mammalian polychromatic erythrocytes, Assay Type: Micronucleus test, chromosome aberrations, Assay Code: MNT+U, Dose Response: Unconfirmed positive response, Evaluation Type: Evaluation B (Post-1980)
  mutagenic call: active; positive

## [NH4+].[O-2].[O-2].[O-2].[O-2].[O-2].[Sb+3].[W]
Species/Cell Type: Syrian hamster embryo (SA7/SHE) cells, Assay Type: Cell transformation, viral enhanced, Assay Code: CT7+, Evaluation Type: Evaluation A (Pre-1980)
  mutagenic call: active; positive

## C[C@@H]1C[C@@]2(O[C@H]2C)C(=O)O[C@@H]2CCN3CC=C(COC(=O)[C@]1(C)O)[C@H]23
[4]
  mutagenic call: active; positive
[1]
  mutagenic call: no conclusion

## O=[N+]([O-])c1ccc(-c2cscn2)o1
Species/Cell Type: Bacillus subtilis (H17 vs M45), Assay Type: Rec-assay, spot test, DNA effects (bacterial DNA repair), Assay Code: REW+, Evaluation Type: Evaluation A (Pre-1980)
  mutagenic call: active; positive
[3]
  call: active; positive
[5]
  mutagenic call: active; positive
Species/Cell Type: Syrian hamster embryo (SHE) cells, Assay Type: Cell transformation, clonal assay, Assay Code: CTC-, Evaluation Type: Evaluation A (Pre-1980)
  mutagenic call: inactive; negative

## CCOC(=O)NO
[1]
  mutagenic call: no conclusion
Species/Cell Type: Escherichia coli polA (W3119 vs P3478), Assay Type: Rec-assay, DNA effects (bacterial DNA repair), Assay Code: RE1+, Evaluation Type: Evaluation A (Pre-1980)
  mutagenic call: active; positive
Species/Cell Type: Human lymphocytes or leukocytes, Assay Type: Chromosome aberrations in vitro, Assay Code: CY7+, Evaluation Type: Evaluation A (Pre-1980)
  mutagenic call: active; positive
Species/Cell Type: Human lymphocytes, Assay Type: Sister-chromatid exchange (SCE) in vitro, Assay Code: SCL+D, Dose Response: With dose response, Evaluation Type: Evaluation B (Post-1980)
  mutagenic call: active; positive
Species/Cell Type: Human, Assay Type: Sister-chromatid exchange (SCE) in vitro, Assay Code: SC1+D, Dose Response: With dose response, Evaluation Type: Evaluation B (Post-1980)
  mutagenic call: active; positive
Species/Cell Type: Mammalian polychromatic erythrocytes, Assay Type: Micronucleus test, chromosome aberrations, Assay Code: MNT+, Evaluation Type: Evaluation A (Pre-1980)
  mutagenic call: active; positive
Species/Cell Type: Mouse embryo (AKR/ME) cells, Assay Type: Cell transformation, Assay Code: CTK+, Evaluation Type: Evaluation A (Pre-1980)
  mutagenic call: active; positive
[3]
  call: active; positive
[6]
  mutagenic call: active; positive
Species/Cell Type: Nonhuman, Assay Type: Sister-chromatid exchange (SCE) in vivo, Assay Code: SC3+D, Dose Response: With dose response, Evaluation Type: Evaluation B (Post-1980)
  mutagenic call: active; positive

## CCOC(=O)c1cc2cc3ccoc3cc2oc1=O
Species/Cell Type: Human, Assay Type: Sister-chromatid exchange (SCE) in vitro, Assay Code: SC1+, Evaluation Type: Evaluation B (Post-1980)
  mutagenic call: active; positive

## COC(=O)COc1ccc(Cl)cc1CCl (tested in a mixture with another compound)
Species/Cell Type: Saccharomyces cerevisiae, Assay Type: Reverse gene mutation, Assay Code: YERT, Evaluation Type: Evaluation A (Pre-1980)
  mutagenic call: no conclusion

## Oc1cccc(O)c1O
[4]
  mutagenic call: active; positive
[7]
  mutagenic call: active; positive

## CC(C)C[C@H](NC(=O)[C@@H](O)[C@H](N)Cc1ccccc1)C(=O)O
Species/Cell Type: Human, Assay Type: Sister-chromatid exchange (SCE) in vitro, Assay Code: SC1T, Evaluation Type: Evaluation B (Post-1980)
  mutagenic call: no conclusion

## c1cc2c3c(cccc3c1)CC2
Species/Cell Type: Drosophila melanogaster, Assay Type: Aneuploidy, sex chromosome gain, chromosome aberrations, Assay Code: DAGT, Evaluation Type: Evaluation A (Pre-1980)
  mutagenic call: no conclusion

## CCN1CC[C@@H]2[C@@H](c3ccc(C)cc3)c3cc(C)ccc3[C@@H]2C1
Species/Cell Type: Mouse, Sex: Male, Assay Type: Sperm morphology, Assay Code: SPI-, Evaluation Type: Evaluation A (Pre-1980)
  mutagenic call: inactive; negative
[8]
  mutagenic call: inactive; negative
Species/Cell Type: Salmonella typhimurium (one or more of the five standard strains: TA98, TA100, TA1535, TA1537, and TA1538), Assay Type: Histidine reverse gene mutation, Ames assay, Assay Code: SALT, Evaluation Type: Evaluation A (Pre-1980)
  mutagenic call: no conclusion

## O=C(O)CC[N+](=O)[O-]
Species/Cell Type: Fischer rat embryo (RLV/1706) cells, Assay Type: Cell transformation, viral enhanced, Assay Code: CTR+, Evaluation Type: Evaluation A (Pre-1980)
  mutagenic call: active; positive
Species/Cell Type: Nonhuman, Assay Code: CCG-L, Evaluation Type: Evaluation A (Pre-1980)
  call: inactive; negative

## Cc1ccc(N)c(N)c1
[7]
  mutagenic call: active; positive

## [Cl][Sn]([Cl])([Cl])[Cl]
Species/Cell Type: Bacillus subtilis (H17 vs M45), Assay Type: Rec-assay, spot test, DNA effects (bacterial DNA repair), Assay Code: REW-, Evaluation Type: Evaluation A (Pre-1980)
  mutagenic call: inactive; negative

## CCCN(CCC)C(=O)SCC
Species/Cell Type: Neurospora crassa, Assay Type: Aneuploidy, chromosome aberrations, Assay Code: NEN-, Evaluation Type: Evaluation A (Pre-1980)
  mutagenic call: inactive; negative
Species/Cell Type: Zea mays (corn), Assay Type: Gene mutation, Assay Code: ZEM-, Evaluation Type: Evaluation A (Pre-1980)
  mutagenic call: inactive; negative

## C=CC1=C(C)/C(=C/c2[nH]c(Cc3[nH]c(/C=C4\NC(=O)C(C)=C4C=C)c(C)c3CCC(=O)O)c(CCC(=O)O)c2C)NC1=O
Species/Cell Type: Human lymphocytes, Assay Type: Sister-chromatid exchange (SCE) in vitro, Assay Code: SCL-, Evaluation Type: Evaluation A (Pre-1980)
  mutagenic call: inactive; negative
Species/Cell Type: Human, Assay Type: Sister-chromatid exchange (SCE) in vitro, Assay Code: SC1-, Evaluation Type: Evaluation A (Pre-1980)
  mutagenic call: inactive; negative

## C[n+]1ccc(-c2cc[n+](C)cc2)cc1
[4]
  mutagenic call: active; positive
[2]
  mutagenic call: active; positive
[6]
  mutagenic call: active; positive
[8]
  mutagenic call: inactive; negative
Species/Cell Type: Saccharomyces cerevisiae, Assay Type: Mitotic recombination or gene conversion, Assay Code: YEC+, Evaluation Type: Evaluation A (Pre-1980)
  mutagenic call: active; positive
Species/Cell Type: Vicia faba, Assay Type: Chromosome aberrations, Assay Code: VIC-, Evaluation Type: Evaluation A (Pre-1980)
  mutagenic call: inactive; negative

## CC(C)(Oc1ccc(C2CCCc3ccccc32)cc1)C(=O)O (centres undefined)
[9]
  call: active; positive

## [2H]C1([2H])CNP(=O)(N(CCCl)CCCl)OC1 (centres undefined)
Species/Cell Type: Nonhuman, Assay Type: Sister-chromatid exchange (SCE) in vitro, Assay Code: SC2+D*, Activation: With metabolic activation, Dose Response: With dose response, Evaluation Type: Evaluation B (Post-1980)
  mutagenic call: active; positive

## Cc1nc2ccc([N+](=O)[O-])cc2[nH]1
[5]
  mutagenic call: active; positive

## Cc1ccc2c(c1N)C(=O)c1ccccc1C2=O
[9]
  call: active; positive

## O=C(CCNNC(=O)c1ccncc1)NCc1ccccc1
Species/Cell Type: Nonhuman, Assay Type: Sister-chromatid exchange (SCE) in vivo, Assay Code: SC3+, Evaluation Type: Evaluation B (Post-1980)
  mutagenic call: active; positive
[5]
  mutagenic call: active; positive
